Reference: patent publication US6130333A, “Bicyclic imidazolyl derivatives as phosphodiesterase inhibitors, pharmaceutical compositions and method of use” (Monsanto Company, priority 1998, dated 2000)

Columns and labels:
[1] = test system: cAMP PDE from bovine aorta; test: Assay for inhibition of cAMP PDE; type: biochemical; details: bovine aorta enzyme; [3H]cAMP substrate; averaged where multiple testing
Procedure: (§1) Phosphodiesterase enzymes were partially purified according to the procedures reported by Francis, S. H., and Corbin, J. D. (1988) in Methods in Enzymology, Vol. 159, pp. 722-729, Academic Press, New York and Bradford, M. M. in (1976) Anal. Biochem. 72, 248-254. Specifically, the purification was accomplished by chromatography of a bovine aorta extract on a DEAE Tris-acryl column. The eluted fractions were assayed for the various specific activities. The specific enzyme activities were pooled and concentrated. […] The cGMP-specific phosphodiesterase was assayed in the presence of 1 μM cGMP. The calcium/calmodulin dependent enzyme activity was assayed in the presence of 1 μM cGMP, 0.5 units calmodulin (Sigma P-0270, phosphodiesterase 3',5'-cyclic nucleotide activator from bovine heart) per ml of reaction, and 100 μM Ca^2+.
(§2) Enzyme assays were performed in Millipore 96-well polystyrene microtiter plates in a total assay volume of 100 μL of buffer containing 100 mM Tris-HCl and 5 mM MgSO4 at pH 7.5. cGMP PDE inhibitor compounds were dissolved in DMSO at a concentration of 10 mM and then diluted into the assay to give a final concentration of DMSO in the assay of 1% which has no effect on the enzymatic reaction. The reaction mixture consisted of 10 μL diluted inhibitor, 10 μL of a solution of the appropriate phosphodiesterase enzyme preparation, and 60 μL buffer. The reaction was initiated by the addition 20 μL of 5μM [3H]cGMP (100,000 DPM/well). The tritiated cGMP nucleotides were obtained from DuPont/New England Nuclear Lifesciences Company, Boston, Mass. as an ammonium salt (NET-554 guanosine 3',5'-cyclic phosphate, [8,5'-^3 H]).
(§3) After a 30 minute incubation at room temperature the reaction was stopped by the addition of 50 μL of 210 mM ZnSO4 followed by an addition of 50 μL of freshly prepared 19 mM Ba(OH)2 to specifically precipitate the radiolabled 5'-nucleotide product. The Zn--Ba precipitate was filtered onto glass-fiber filters mats (Wallac, Filtermat A, 102×258 mm) using an automated 96-well harvester (TOMTEC Harvester 96®, MACH II). The precipitate was washed from the microtiterplate to the filtermat with a total volume of 1 ml/well of a wash buffer containing 1 mM NaOH and 100 mM NaCl. The filtermat were dried in a microwave oven and placed in a Wallac sample bag for use with the 1205 BetaPlate™. 10 ml of Beta Plate Scint (LKB) was added to the bag and allowed to diffuse throughout the filter. The radiolabel was then quantitated using a LKB/Wallac 1205 BetaPlate™ scintillation counter. Inhibitor dilution curves were created using six concentrations of the inhibitor in duplicate. IC50 values were determined from a linear regression of a Log Logit transformation of the data. M&B 22,948 (2-o-propoxyphenyl-8-azapurin-6-one) was used as the standard control inhibitor for cGMP PDE and was prepared according to U.S. Pat. No. 3,819,631.
The procedure for the inhibition of cAMP PDE was identical to the procedure for the cGMP-specific phosphodiesterase assay above, except that partially purified cAMP PDE from bovine aorta was collected as pooled from the DEAE tris-acryl column based upon its elution relative to cGMP-specific PDE as well as its specificity for cAMP by hydrolysis and then used. The partially purified cAMP PDE was stored as a concentrated solution at 4° C. This enzyme was diluted 1:30 with an assay buffer prior to use. A substrate solution of [^3 H]cAMP was added to 5 μM adenosine 3', 5'-cyclic monophosphate sodium salt in assay buffer to give a solution with a specific activity of 1000 CPM/pmole (100,000 CPM/20 μl). The reaction was initiated by the addition 20 μL of 5 μM [3H]cAMP (100,000 DPM/well). The tritiated cAMP nucleotides were obtained from DuPont/New England Nuclear Lifesciences Company, Boston, Mass. as an ammonium salt (NET-275 adenosine 3',5'-cyclic phosphate, (2,8-^3 H]). Ro 20-1724 was used as the standard control (obtained from Hoffmann LaRoche, Nutley, N.J.).

[2] = biological target: T1, cGMP-specific PDE from bovine aorta (Bos taurus, UniProt Q28156); test: Assay for inhibition of cGMP PDE; type: biochemical; details: bovine aorta enzyme; 30 minute incubation at room temperature, pH 7.5; averaged where multiple testing
T1 construct: chromatography of a bovine aorta extract on a DEAE Tris-acryl column; from tissue; host or cells: bovine aorta
Procedure: as §1
The partially purified cGMP-specific PDE from bovine aorta was stored as a concentrated solution in glycerol at 4° C. Prior to use it was diluted approximately 1:3000 with an assay buffer containing 100 mM Tris-HCl and 5 mM MgSO4 at pH 7.5 to give approximately 10% conversion of cGMP substrate to GMP in a 30 minute reaction time.
as §2, §3

[3] = In vivo blood pressure measurement in rats (femoral artery catheter); set-up: species or system male Sprague Dawley rats; details: intraperitoneal injection
Source text: The FIGURE is a plot of mean blood pressure (mmHg) versus time (min) for anesthetized male Sprague Dawley rats (Charles River Laboratories, Wilmington, Mass.) following administration of a cyclic GMP phosphodiesterase inhibitor of this in vention by intraperitoneal injection.
Polyethylene catheters (PE50) were inserted into the femoral artery and vein of anesthetized male Sprague Dawley rats (Charles River Laboratories,Wilmington, Mass.) in order to monitor the mean arterial pressure and administer test compounds. Following surgery, the animals were place in individual restraining cages and allowed to regain consciousness. Infusion of 0.9% sodium chloride via the femoral vein (0.07 ml/kg/min) was begun and continued throughout the study period. Observations were begun approximately 90 minutes after the initiation of infusion to allow the animals to fully regain consciousness. Blood pressure was continuously monitored via the femoral artery with a pressure transducer (type 041-500-503; Cobe, Lakewood, Colo.) connected to a Grass Model 7E polygraph. Mean arterial pressure and heart rates were recorded at 3 minute intervals by a computerized data acquisition system. Cyclic GMP phosphodiesterase inhibitor (Example 41) was administered as an intraperitoneal injection, alternatively the inhibitor could have been administered directly into the catheter as an intravenous bolus.

[4] = test system: ca/calmodulin dependent cGMP PDE from bovine aorta; test: Assay for inhibition of calcium/calmodulin dependent cGMP phosphodiesterase enzyme (Ca PDE); type: biochemical; details: CaCl2 and calmodulin, averaged where multiple testing, read-out: Ca GMP PDE IC50
Procedure: as §1, §2, §3
The procedure for the calcium/calmodulin dependent cGMP PDE assay was identical to the cGMP-specific phosphodiesterase assay described above, except for the following changes noted below. Partially purified ca/calmodulin dependent cGMP PDE enzyme from bovine aorta was collected as a pool based upon its elution relative to cAMP-dependent PDE and conformational changes introduced by the addition of 1 mM EDTA for 1 hour at 4° C. It was then diluted 1:1800 in assay buffer containing 143 μM CaCl2 and 0.7 units of calmodulin/ml and 70 μl of this enzyme solution was used per assay well. The standard control used was Vinpocetine purchased from Gedeon Richter LTD, Budapest, Hungary.

[5] = rats; McMahon et al. 1989; cited from earlier work

| Structure (SMILES) | IC50 [1] | IC50 [2] | IC50 [4] | reduction in blood pressure [3] | mean arterial pressure [5] | urinary cGMP (and not cAMP) levels [5] |
| --- | --- | --- | --- | --- | --- | --- |
| c1ccc2c(c1)nc(-c1ccc3c(c1)OCO3)n2Cc1ccc2c(c1)OCO2 [Example 41, 2-(1,3-Benzodioxol-5-yl)-1-[(1,3-benzodioxol-5-yl)methyl]-1H-benzimidazole] | 11.9 µM | 0.003 µM | 64.5 µM | A reduction in blood pressure was observed | – | – |
| CCCOc1ccccc1-c1nc2[nH]nnc2c(=O)[nH]1 [M&B 22,948, 2-o-propoxyphenyl-8-azapurin-6-one] | – | – | – | – | dose-dependent reduction in the mean arterial pressure | increase in urinary cGMP (and not cAMP) levels |
| c1ccc(Cn2c(-c3ccc4c(c3)OCO4)nc3ccccc32)cc1 [Example 25, 2-(1,3-Benzodioxol-5-yl)-1-phenylmethyl-1H-benzimidazole] | 12.4 µM | 0.011 µM | 75 µM | – | – | – |
| Fc1ccccc1Cn1c(-c2ccc3c(c2)OCO3)nc2ccccc21 [Example 30, 2-(1,3-Benzodioxol-5-yl)-1-(2-fluorophenylmethyl)-1H-benzimidazole] | > 100 µM | 0.004 µM | > 100 µM | – | – | – |
| Cc1ccc(-c2nc3ccccc3n2Cc2ccc3c(c2)OCO3)cc1 [Example 42, 1-[(1,3-benzodioxol-5-yl)methyl]-2-(4-methylphenyl)-1H-benzimidazole] | 18 µM | 0.009 µM | 60 µM | – | – | – |

Now from value to molecule, other results behind:

| IC50 [1] | IC50 [2] | IC50 [4] | Structure (SMILES) | reduction in blood pressure [3] | mean arterial pressure [5] | urinary cGMP (and not cAMP) levels [5] |
| --- | --- | --- | --- | --- | --- | --- |
| 5.2 µM | 0.024 µM | 60 µM | c1ccc2cc(Cn3c(-c4ccc5c(c4)OCO5)nc4ccccc43)ccc2c1 [Example 29, 2-(1,3-Benzodioxol-5-yl)-1-(2-naphthalenylmethyl)-1H-benzimidazole] | – | – | – |
| 7.3 µM | 0.003 µM | > 100 µM | c1ccc(Cn2c(-c3ccc4c(c3)OCO4)nc3cccnc32)cc1 [Example 43, 2-(1,3-Benzodioxol-5-yl)-3-(phenylmethyl)-3H-imidazo[4,5-b]pyridine] | – | – | – |
